In patent publication US11261186B2, “Biaryl derivative as GPR120 agonist” (LG CHEM, LTD., priority 2014, dated 2022) one finds EC50 data, which are given here for 38 compounds.

This experiment has as its target T1, hGPR120 (Homo sapiens, UniProt Q5NUL3).
T1 construct: expressed in transfected cells; host or cells: CHO-K1
T1 sequence (Q5NUL3 1-361): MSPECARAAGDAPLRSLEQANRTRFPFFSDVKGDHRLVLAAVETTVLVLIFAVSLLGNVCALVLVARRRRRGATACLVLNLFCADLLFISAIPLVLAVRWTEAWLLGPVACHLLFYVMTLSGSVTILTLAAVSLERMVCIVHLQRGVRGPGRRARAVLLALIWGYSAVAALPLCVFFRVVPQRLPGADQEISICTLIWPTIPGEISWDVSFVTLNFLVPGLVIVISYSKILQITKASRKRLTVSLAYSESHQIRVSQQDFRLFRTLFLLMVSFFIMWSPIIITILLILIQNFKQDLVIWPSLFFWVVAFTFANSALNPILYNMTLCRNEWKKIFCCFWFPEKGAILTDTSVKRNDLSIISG
As to the kind of experiment: Measurement of Activity of GPR120 Agonist (Cell-Based Assay), Calcium 5 dye fluorescence. To be noted: CHO-K1 cells expressing Ga16 and hGPR120. Summed up:
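Agonist-evoked calcium signal, expressed as percent relative to DMSO-only wells, read at 485/525 nm after serial-dilution addition (0.5% DMSO final). Cells were hGPR120/Gα16 CHO-K1, seeded 18 h earlier and dye-loaded for 1 h at 37°C.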
As a reminder, the EC50 is the concentration that produces a half-maximal response. Regarding `O=C(O)CCCOc1c(F)cc(-c2cncc(OCC3CC3)n2)cc1F` [Example 434, 4-[4-(6-cyclopropylmethoxy-pyrazin-2-yl)-2,6-difluoro-phenoxy]-butyric acid], the EC50 was below 200 nM. In the case of `Cc1cc(OCC2CC2)nc(-c2cc(F)c(OCCCC(=O)O)c(Cl)c2)c1` [Example 435, 4-[2-chloro-4-(6-cyclopropylmethoxy-4-methyl-pyridin-2-yl)-6-fluoro-phenoxy]-butyric acid], the EC50 was below 200 nM. As for `CC(C)Oc1cncc(-c2cc(F)c(OCCCC(=O)O)c(Cl)c2)n1` [Example 436, 4-[2-chloro-6-fluoro-4-(6-isopropoxy-pyrazin-2-yl)-phenoxy]-butyric acid], the figure is below 200 nM; as for `CCOc1cncc(-c2cc(F)c(OCCCC(=O)O)c(Cl)c2)n1` [Example 437, 4-[2-chloro-4-(6-ethoxy-pyrazin-2-yl)-6-fluoro-phenoxy]-butyric acid], below 200 nM. Regarding `O=C(O)C[C@H]1CCN(c2c(F)cc(-c3cccc(OCC4CC4)n3)cc2F)C1` [Example 438, {(R)-1-[4-(6-cyclopropylmethoxy-pyridin-2-yl)-2,6-difluoro-phenyl]-pyrrolidin-3-yl}-acetic acid], the EC50 is below 200 nM.

As for `O=C(O)CC1CCN(c2c(F)cc(-c3cccc4c3OC(F)(F)O4)cc2F)CC1` [Example 439, {1-[4-(2,2-difluoro-benzo[1,3]dioxol-4-yl)-2,6-difluoro-phenyl]-piperidin-4-yl}-acetic acid], the EC50 was in the range of 200 to 2000 nM. As for `CC(C)Sc1ncccc1-c1cc(F)c2c(c1)CCC(CCC(=O)O)S2` (centres unmarked) [Example 440, 3-[8-fluoro-6-(2-isopropylsulfanyl-3-pyridyl)thiochroman-2-yl]propanoic acid], the figure is 200 to 2000 nM; as for `O=C(O)CCC1CCc2cc(-c3cccc(OC4CCC4)n3)ccc2S1` (centres unmarked) [Example 441, 3-[6-[6-(cyclobutoxy)-2-pyridyl]thiochroman-2-yl]propanoic acid], below 200 nM. Take `COc1ccc(-c2cc(F)c(C3CC3CCC(=O)O)c(F)c2)c2c1OC(C)(C)C2` (centres unmarked) [Example 442, 3-[2-[2,6-difluoro-4-(7-methoxy-2,2-dimethyl-3H-benzofuran-4-yl)phenyl]cyclopropyl]propanoic acid]: the EC50 was in the range of 200 to 2000 nM. As for `O=C(O)CCC1CC1c1c(F)cc(-c2cccc3c2OC2(CCCC2)C3)cc1F` (centres unmarked) [Example 443, 3-[2-(2,6-difluoro-4-spiro[3H-benzofuran-2,1′-cyclopentan]-7-yl-phenyl)cyclopropyl]propanoic acid], the EC50 was in the range of 200 to 2000 nM. For `O=C(O)CCC1CCc2cc(-c3cccc(OC4CCC4)n3)ccc2O1` (centres unmarked) [Example 444, 3-[6-[6-(cyclobutoxy)-2-pyridyl]chroman-2-yl]propanoic acid], the EC50 was below 200 nM. The value for `O=C(O)CCC1CCc2cc(-c3cccc(OCC4CC4)n3)ccc2O1` (centres unmarked) [Example 445, 3-[6-[6-(cyclopropylmethoxy)-2-pyridyl]chroman-2-yl]propanoic acid] was below 200 nM; that for `COc1cccc(-c2cc(F)c(OCCCC(=O)O)c(F)c2)c1OC` [Example 446, 4-[4-(2,3-dimethoxyphenyl)-2,6-difluoro-phenoxy]butanoic acid] was 200 to 2000 nM.

`O=C(O)CCC1CCc2cc(-c3cccc(OCC4CC4)c3)ccc2O1` (centres unmarked) [Example 447, 3-[6-[3-(cyclopropylmethoxy)phenyl]chroman-2-yl]propanoic acid]: the half-maximal effective concentration (EC50) was below 200 nM. As for `O=C(O)CCC1CCc2cc(-c3cccc(OC4CCCC4)c3)ccc2O1` (centres unmarked) [Example 448, 3-[6-[3-(cyclopentoxy)phenyl]chroman-2-yl]propanoic acid], the figure is below 200 nM; as for `CN(CCCC(=O)O)c1c(F)cc(-c2cccc3c2OC2(CCCC2)O3)cc1F` [Example 449, 4-(2,6-difluoro-N-methyl-4-spiro[1,3-benzodioxol-2,1′-cyclopentan]-4-yl-anilino)butanoic acid], below 200 nM; as for `CC(CCCC(=O)O)c1c(F)cc(-c2cccc3c2OC2(CCCC2)O3)cc1F` (centres unmarked) [Example 450, 5-(2,6-difluoro-4-spiro[1,3-benzodioxol-2,1′-cyclopentan]-4-yl-phenyl)hexanoic acid], below 200 nM. As to `CC(C)(C)Sc1cccc(-c2ccc3c(c2)CCC(CCC(=O)O)O3)n1` (centres unmarked) [Example 451, 3-[6-(6-tert-butylsulfanyl-2-pyridyl)chroman-2-yl]propanoic acid], the concentration giving a half-maximal response (EC50) was below 200 nM.

On to `CC(C)Oc1cccc(-c2ccc3c(c2)CCC(CCC(=O)O)O3)n1` (centres unmarked) [Example 452, 3-[6-(6-isopropoxy-2-pyridyl)chroman-2-yl]propanoic acid], for which the EC50 was below 200 nM. The value for `O=C(O)CC1CCN(c2c(F)cc(-c3cccc4c3OC3(CCCC3)O4)cc2F)CC1` [Example 453, 2-[1-(2,6-difluoro-4-spiro[1,3-benzodioxol-2,1′-cyclopentan]-4-yl-phenyl)-4-piperidyl]acetic acid] was 200 to 2000 nM; that for `CCCOc1cccc(-c2cc(F)c(OCCCC(=O)O)c(F)c2)c1OCCC` [Example 454, 4-[4-(2,3-dipropoxyphenyl)-2,6-difluoro-phenoxy]butanoic acid] was below 200 nM; that for `COc1ccc(-c2cc(F)c(OCCCC(=O)O)c(F)c2)nc1OC1CCC1` [Example 455, 4-[4-[6-(cyclobutoxy)-5-methoxy-2-pyridyl]-2,6-difluoro-phenoxy]butanoic acid] was below 200 nM.

Consider `COc1ccc(-c2cc(F)c(N(C)CCCC(=O)O)c(F)c2)nc1OC1CCC1` [Example 456, 4-[4-[6-(cyclobutoxy)-5-methoxy-2-pyridyl]-2,6-difluoro-N-methyl-anilino]butanoic acid], for which the EC50 is below 200 nM. As for `COc1ccc(-c2cc(F)c(N3CCC(CC(=O)O)CC3)c(F)c2)nc1OC1CCC1` [Example 457, 2-[1-[4-[6-(cyclobutoxy)-5-methoxy-2-pyridyl]-2,6-difluoro-phenyl]-4-piperidyl]acetic acid], the figure is 200 to 2000 nM; as for `CCCOc1cccc(-c2cc(F)c(N3CCC(CC(=O)O)CC3)c(F)c2)c1OCCC` [Example 458, 2-[1-[4-(2,3-dipropoxyphenyl)-2,6-difluoro-phenyl]-4-piperidyl]acetic acid], 200 to 2000 nM. The value for `COc1ccc(-c2cc(F)c(OCCCC(=O)O)c(F)c2)nc1OCC1CC1` [Example 459, 4-[4-[6-(cyclopropylmethoxy)-5-methoxy-2-pyridyl]-2,6-difluoro-phenoxy]butanoic acid] was below 200 nM; that for `CCCOc1cccc(-c2cc(F)c(N(C)CCCC(=O)O)c(F)c2)c1OCCC` [Example 460, 4-[4-(2,3-dipropoxyphenyl)-2,6-difluoro-N-methyl-anilino]butanoic acid] was 200 to 2000 nM; that for `COc1ccc(-c2cc(F)c(N(C)CCCC(=O)O)c(F)c2)nc1OCC1CC1` [Example 461, 4-[4-[6-(cyclopropylmethoxy)-5-methoxy-2-pyridyl]-2,6-difluoro-N-methyl-anilino]butanoic acid] was 200 to 2000 nM. As for `COc1ccc(-c2cc(F)c(N3CCC(CC(=O)O)CC3)c(F)c2)nc1OCC1CC1` [Example 462, 2-[1-[4-[6-(cyclopropylmethoxy)-5-methoxy-2-pyridyl]-2,6-difluoro-phenyl]-4-piperidyl]acetic acid], the figure is 200 to 2000 nM; as for `O=C(O)CCCOc1c(F)cc(-n2ccc3ccc(Cl)cc32)cc1F` [Example 463, 4-[4-(6-chloroindol-1-yl)-2,6-difluoro-phenoxy]butanoic acid], below 200 nM. As for `COc1ccc(-c2ccc(C(F)(F)CCCC(=O)O)cc2)nc1OC1CCC1` [Example 464, 5-[4-[6-(cyclobutoxy)-5-methoxy-2-pyridyl]phenyl]-5,5-difluoro-pentanoic acid], the EC50 was below 200 nM. As for `O=C(O)CCCOc1c(F)cc(-n2ccc3cc(F)ccc32)cc1F` [Example 465, 4-[2,6-difluoro-4-(5-fluoroindol-1-yl)phenoxy]butanoic acid], the figure is below 200 nM. The value for `CN(CCCC(=O)O)c1c(F)cc(-c2cccc(NCC3CC3)c2)cc1F` [Example 466, 4-[4-[3-(cyclopropylmethylamino)phenyl]-2,6-difluoro-N-methyl-anilino]butanoic acid] was below 200 nM; that for `CN(CCCC(=O)O)c1c(F)cc(-c2cccc(N3CCCC3)n2)cc1F` [Example 467, 4-[2,6-difluoro-N-methyl-4-(6-pyrrolidin-1-yl-2-pyridyl)anilino]butanoic acid] was 200 to 2000 nM. As for `COc1ccc2c(ccn2-c2cc(F)c(OCCCC(=O)O)c(F)c2)c1` [Example 468, 4-[2,6-difluoro-4-(5-methoxyindol-1-yl)phenoxy]butanoic acid], the figure is below 200 nM.

For `N#Cc1ccc2c(ccn2-c2cc(F)c(OCCCC(=O)O)c(F)c2)c1` [Example 469, 4-[4-(5-cyanoindol-1-yl)-2,6-difluoro-phenoxy]butanoic acid], the EC50 was 2000 to 20000 nM. The value for `CN(CCCC(=O)O)c1c(F)cc(-c2occc2COCC2CC2)cc1F` [Example 470, 4-[4-[3-(cyclopropylmethoxymethyl)-2-furyl]-2,6-difluoro-N-methyl-anilino]butanoic acid] was 200 to 2000 nM; that for `O=C(O)CCCOc1c(F)cc(-n2ccc3c(F)cccc32)cc1F` [Example 471, 4-[2,6-difluoro-4-(4-fluoroindol-1-yl)phenoxy]butanoic acid] was below 200 nM.
